The source of these data is patent publication US20080177075A1, “Compositions For Progeny Gender Control” (AQ+PLC Stephen Mabbott Associates, priority 2004, published 2008).

Excerpt: Suitable aqueous based compositions can be prepared by using an intermediate diluent such as a polyol, including glycols, preferably propylene glycol, glycerine, or sorbitol, and a wetting agent.

For `Oc1cccc2cccnc12` [8-hydroxyquinoline], the “solubility in aqueous solution” value is recorded as “generally insoluble or only poorly soluble”.
